{"source": "patent US11589603B2", "about": "“Powdered nutritional product containing branched-chain amino acids and a sugar alcohol” (Abbott Laboratories, priority 2015, dated 2023)", "key": {"[1]": {"assay": "Example 4: aqueous dissolution of branched-chain amino acids in a powdered nutritional product with varying myo-inositol, LC/UV of filtrate", "type": "physicochemical", "settings": "powdered nutritional product; particularly evident at 30 seconds across all concentrations", "procedure": "(§1) The LC/UV system used to perform the tests comprised the following: 1) Column: YMC ODS-AQ, 4.6 x 250 mm, 5 μm, Waters P/N AQ12S052546WT; 2) Mobile Phase: Milli-Q Plus water; 3) Flow Rate: 0.4 mL/minute; 4) Temperature: 40° C.; 5) Detection: UV at 192 nm; 6) Injection: 2 μL of filtrate; and 7) Run Time: 20 minutes.\nExample 4 evaluates the effect that myo-inositol concentration has on the aqueous dissolution of branched-chain amino acids (valine, isoleucine, and leucine) in a powdered nutritional product. One serving (17.6 grams) of the powdered nutritional product contains 7.00 grams of a branched-chain amino acid blend comprising 50 wt. % leucine, 25 wt. % isoleucine, and 25 wt. % valine. A serving of the powdered nutritional product with a specified amount of myo-inositol was added to 16 fluid ounces of Milli-Q Plus water at 21° C. and stirred at 400 rpm. At each specified time point, an aliquot was obtained and filtered through a 0.45 μm PTFE membrane (Pall Life Sciences, Acrodisc CR 25, P/N 4501), and the filtrate was tested for valine, isoleucine, and leucine using the LC/UV method as described in Example 3."}, "[2]": {"assay": "Example 5: effect of inositol isomers on dissolution of L-leucine, LC/UV of filtrate", "type": "physicochemical", "settings": "3.50 g L-leucine with 0.1 g/16 oz. inositol isomer, water 21° C., 400 rpm", "procedure": "as §1, with “[…];” for “P/N AQ12S052546WT;”"}}, "note": "“And” between values parts separate entries of the source, which are not always exact repeats. Identical values can stand only once."}
{"molecule": "O[C@H]1[C@H](O)[C@@H](O)[C@H](O)[C@@H](O)[C@H]1O", "note": "[myo-inositol]", "values": [{"measurement": "effect of addition of myo-inositol on rate of dissolution of the branched-chain amino acids", "setting": "[1]", "value": "enhanced the rate of dissolution"}, {"measurement": "Leu dissolved at 30 seconds (g/16 oz.)", "setting": "[2]; 30 seconds", "value": "0.465 g/16 oz. and 0.495 g/16 oz."}, {"measurement": "Leu dissolved at 60 seconds (% of total Leu)", "setting": "[2]; 60 seconds", "value": "23.9 % of total Leu and 22.3 % of total Leu"}, {"measurement": "Leu dissolved at 60 seconds (g/16 oz.)", "setting": "[2]; 60 seconds", "value": "0.838 g/16 oz. and 0.781 g/16 oz."}]}
